Several values for one entry are separate records, joined by “and”; a condition that tells them apart may be missing. Equal entries are not always repeated.
Key:
Type in all cases: cell-based
[1] = system: bacteria encountered in ethanol production; experiment: Alcohol production plant trial, fermentor drop data (corn, batch fermentation)
Procedure: This trial was conducted at a 50 million gallon per year (m/g/y) dry grind fuel alcohol production facility utilizing corn as a fermentation substrate. Batch yeast propagation and fermentation process were utilized. Antimicrobials were added to the fermentor during the fill cycle at approximately 30% fill. No other changes were made to the process or chemical additions that would influence the fermentation kinetics monitored during 3 sets of fermentor batches listed below. The fermentation data was accumulated at the end (drop) of the fermentation process for each of the fermentors. […] See results in Table 2. […] See results in Table 3. […] See results in Table 4.

[2] = system: Pediococcus test organism along with “industry normal” Lactobacillus; experiment: Virginiamycin (V100) vs. Erythromycin (V200) comparative efficacy analysis, 24 well plate growth test in MRS broth; details: 33° C., read at 24 and 48 hours
Excerpt: (§1) The antibiotics currently most often used at alcohol production plants are either Penicillin-based or Virginiamycin-based. This example compares the use of Bactenix V200, an Erythromycin-based antibiotic versus V100, a Virginiamycin-based antibiotic also available from NABC to control Pediococcus test organism along with “industry normal” Lactobacillus. The trial uses an alcohol water mixture to assure total dissolving of antibiotics. This assures that the correct concentrations of antibiotics are going into the test wells and thereby preventing under dosing during the trial. All bacteria tested were industry specific isolates that were obtained from actual mash samples from alcohol production plants. The trial was set up as follows: • 1. Dissolve 0.1 g of each of the antibiotics in 1 ml water and then add 5 ml of ethanol, vortex and bring up to 10 ml with sterile water to from a suspension. • 2. Dilute the previous suspension 1:10 with sterile water. This gives a one mg/ml concentration. • 3. Filter the suspension by running through a 0.2 μm syringe filter. • 4. Add antibiotics to MRS (DeMan, Rogosa and Sharpe) broth at the concentrations required for the test. • 5. Take two μl of a fresh 24-hour culture of the target organisms and add to the corresponding empty wells in a pre-labeled 24 well tissue culture plate. • 6. Add one ml of the appropriate antibiotic media to each well of the plate. • 7. Incubate at 33° C. for 24 hours. • 8. Read plates for bacterial growth and re-incubate the plates at 33° C. • 9. After 48 hours read and report the final results.

[3] = system: industry obtained Pediococcus bacteria; experiment: as above; details: 33° C., read at 24 and 48 hours
Excerpt: as §1

[4] = system: Saccharomyces cerevisea yeast (BioFerm XR yeast); experiment: Impact of Erythromycin on the function and replication of yeast during lab scale corn mash fermentation; details: for Cell Count: number of cells in a given area
Procedure: A study was conducted to determine if the fermentation antimicrobial Erythromycin, interfered with cell growth and the fermentation function of Saccharomyces cerevisea yeast used in the fermentation phase of the production of fuel ethanol. […] This study looked at the ability of yeast to replicate and ferment a corn mash substrate with and without the presence of Erythromycin.
This study was set up in a series of fermentation vessels. All antibiotic concentrations were tested in triplicate. Cell counts were done on one flask for each treatment at 24 and 48 hours and final testing of the fermentation reactions by HPLC was performed at 48 hours. The experiment was set as follows:
1. Antibiotic solutions were prepared to provide a sterile 1 and 10 μg/ml solutions.
2. Antibiotic solutions tested were as follows:
A. Control (NA), no antibiotic
3. Fermentations were set up using 31% solids corn mash using saccharifying enzymes and the following procedure:
A. Yeast Conditioning: • 1. Add 2 g yeast to 10 mil sterile water for each 3 flasks to test, (10 g yeast to 50 ml water) into a sterile 250 ml flask and place in water bath set to 100° F. • 2. Incubate at 100° F. for 30 minutes with occasional mixing. • 3. Remove flasks from water bath and divide suspension between the all flasks for the trial.
B. Fermentation Procedure • 1. To prepared mash, add the following. • a. Add 0.58 g urea/liter mash and mix. • b. Add 0.2 ml GA per liter and mix. • 2. Remove sample for background HPLC testing. • 3. Add antibiotic solution to labeled sterile 250 ml flasks. • 4. Add hydrated yeast suspension to mash and mix well. • 5. Add sterile stir bar to each flask and add about 150 ml mash into each 250 ml flask for a total of 12 flasks. • Three flasks for each trial as follows: • a. First group, no antibiotic (NA) flasks 1-3 • b. […] Cover each flask with a gas trap in a sterilized stopper. • 7. Place in a 33° C. water bath with continuous mixing at 280 rpm at 75% power. • a. Turn power on to the magnetic stirrers after placing the flasks onto the platforms to move the stir bars; make sure that mixing is occurring in the flasks. • 8. Remove sample at 24 hours and perform cell count. • 9. Incubate sample for 48 hours, enough time for complete fermentation • 10. Collect samples at the following times for HPLC testing: • 0 hours (one per treatment); 24 hours; 48 hours • Perform 48 hour cell count on same flask as for 24 hour count.

[5] = Set 1 “Pre Erythromycin trial”, 0.5 ppm Virginiamycin, at drop
[6] = Set 3 “Post Erythromycin test”, 0.5 ppm Virginiamycin, at drop
[7] = Set 3 “Post Erythromycin test”, 0.5 ppm Virginiamycin, single fermentor batch at drop
[8] = 0.5 ppm Erythromycin vs 0.5 ppm Virginiamycin batches
[9] = Set 2 vs Sets 1 and 3, same amount of antibiotic
[10] = Set 2 “Erythromycin trial”, 0.5 ppm Erythromycin, at drop

Virginiamycin
Acetic %, 28 batch average [1, 5]: 0.04%
EtOH %, 28 batch average [1, 5]: 15.67%
Glucose %, 28 batch average [1, 5]: 0.29%
Lactic %, 28 batch average [1, 5]: 0.50%
Acetic % ([1]; Set 1 “Pre Erythromycin trial”, 0.5 ppm Virginiamycin, single fermentor batch at drop): 0.02% and 0.03% and 0.04% and 0.13% and 0.05%
Acetic %, 8 batch average [1, 6]: 0.04%
EtOH %, 8 batch average [1, 6]: 15.58%
Glucose %, 8 batch average [1, 6]: 0.32%
Lactic %, 8 batch average [1, 6]: 0.47%
Acetic % [1, 7]: 0.04% and 0.03% and 0.05%
EtOH % [1, 7]: 15.77% and 15.53% and 15.28% and 15.73% and 15.78% and 15.5% and 15.56% and 15.52%
Glucose % [1, 7]: 0.35% and 0.29% and 0.31% and 0.33% and 0.3% and 0.32%
Lactic % [1, 7]: 0.44% and 0.54% and 0.70% and 0.38% and 0.43% and 0.50% and 0.40%
effectiveness against all organisms tested [2]: not effective against all organisms tested
inclusion rate up to which Pediococcus was not controlled [3]: > 3.0 ppm

CC[C@H]1OC(=O)[C@H](C)[C@@H](O[C@H]2C[C@@](C)(OC)[C@@H](O)[C@H](C)O2)[C@H](C)[C@@H](O[C@@H]2O[C@H](C)C[C@H](N(C)C)[C@H]2O)[C@](C)(O)C[C@@H](C)C(=O)[C@H](C)[C@@H](O)[C@]1(C)O [Erythromycin]
% Budding ([4]; Erythromycin 5 ppm, 24 hr): 8%
% Viable ([4]; Erythromycin 5 ppm, 24 hr): 82%
Cell Count ([4]; Erythromycin 5 ppm, 24 hr): 467
% Budding ([4]; Erythromycin 5 ppm, 48 hr): 5%
% Viable ([4]; Erythromycin 5 ppm, 48 hr): 63%
Cell Count ([4]; Erythromycin 5 ppm, 48 hr): 430
% Budding ([4]; Erythromycin 10 ppm, 24 hr): 8%
% Viable ([4]; Erythromycin 10 ppm, 24 hr): 80%
Cell Count ([4]; Erythromycin 10 ppm, 24 hr): 434
% Budding ([4]; Erythromycin 10 ppm, 48 hr): 5%
% Viable ([4]; Erythromycin 10 ppm, 48 hr): 61%
Cell Count ([4]; Erythromycin 10 ppm, 48 hr): 454
% Budding ([4]; Erythromycin 20 ppm, 24 hr): 7%
% Viable ([4]; Erythromycin 20 ppm, 24 hr): 85%
Cell Count ([4]; Erythromycin 20 ppm, 24 hr): 431
% Budding ([4]; Erythromycin 20 ppm, 48 hr): 4%
% Viable ([4]; Erythromycin 20 ppm, 48 hr): 62%
Cell Count ([4]; Erythromycin 20 ppm, 48 hr): 446
yeast growth with Erythromycin present vs without ([4]; at 48 hr): marginal better
adverse effect on the yeast ([4]; used up to 20 ppm): no discernable adverse effect
decrease of lactic acid production during the erythromycin trial [1, 8]: 0.23%
increase of ethanol production during the erythromycin trial [1, 8]: 0.17%
production increase of ethanol per fermentor [1, 8]: 816 gallons of ethanol per fermentor
final ethanol production compared to Virginiamycin fermentors [1, 9]: increase in final ethanol production
glucose utilized compared to Virginiamycin fermentors [1, 9]: utilized the same amount of glucose
lactic acid compared to Virginiamycin fermentors [1, 9]: decrease in lactic acid
Acetic %, 27 batch average [1, 10]: 0.04%
EtOH %, 27 batch average [1, 10]: 15.84%
Glucose %, 27 batch average [1, 10]: 0.30%
Lactic %, 27 batch average [1, 10]: 0.27%
Acetic % ([1]; Set 2 “Erythromycin trial”, 0.5 ppm Erythromycin, single fermentor batch at drop): 0.03% and 0.04% and 0.05% and 0.02% and 0.06%
concentration effective against all organisms tested [2]: 0.5 ppm

Reference: patent publication US8058039B2 (North American Bioproducts Corporation, priority 2008, dated 2011)
